Assay results published in article PMC5059851, “Inhibition of Hedgehog-dependent tumors and cancer stem cells by a newly identified naturally occurring chemotype” (Cell Death & Disease, 2016).

Experiments:
[1] = tested on: cerebellar granule cell progenitors (GCPs); test: BrdU proliferation assay in SAG-treated cerebellar granule cell progenitors; assay type: cell-based, mouse; conditions: SAG + compound at 5 and 10 μM, 48 h
Text: Hh signaling is a critical regulator of cerebellum development controlling the proliferation of granule cell progenitors (GCPs) under Purkinje cell-derived Shh stimuli. Withdrawal of Hh signal, occurring physiologically after the first post-natal week in mice,[54] causes cell growth arrest and induces their differentiation into mature granules.[55] Importantly, genetic and epigenetic alterations in the Hh pathway are responsible for the lack of GCPs proliferation arrest, leading to the tumorigenic conversion of these progenitors, considered as the cell of origin of MB.[56], [57] To investigate the biological effects of 12, we first tested its ability to suppress Hh-dependent growth in 4-day-old mouse cerebellar progenitors.
Figure 4 Compound 12 inhibition of Hh-dependent growth of cerebellum granule cell progenitors. […] (a) Inhibition of cell proliferation was measured as percentage of BrdU incorporation in comparison with SAG-treated sample. […] (c) qRT-PCR analysis show Hh and proliferation targets mRNA expression levels determined in GCPs culture derived from 4-day-old mouse cerebella treated with SAG alone or in combination with compound 12 at 5 and 10 μM concentrations for 48 h. […]
Cell proliferation was evaluated by BrdU detection (Roche, Welwyn Garden City, UK). […] At least 500 nuclei were counted in triplicate, and the number of BrdU-positive nuclei was recorded. […]

human Smo WT = target: T1, human Smo WT (Homo sapiens, UniProt Q99835); test: Bodipy-Cyclopamine (BC) binding assay, HEK293T cells transfected with human Smo WT; conditions: BC (5 nM) displacement, transiently transfected 293T cells
T1 construct: Myc-DDK; expressed in transfected cells; host or cells: HEK293T
T1 sequence (Q99835 28-787): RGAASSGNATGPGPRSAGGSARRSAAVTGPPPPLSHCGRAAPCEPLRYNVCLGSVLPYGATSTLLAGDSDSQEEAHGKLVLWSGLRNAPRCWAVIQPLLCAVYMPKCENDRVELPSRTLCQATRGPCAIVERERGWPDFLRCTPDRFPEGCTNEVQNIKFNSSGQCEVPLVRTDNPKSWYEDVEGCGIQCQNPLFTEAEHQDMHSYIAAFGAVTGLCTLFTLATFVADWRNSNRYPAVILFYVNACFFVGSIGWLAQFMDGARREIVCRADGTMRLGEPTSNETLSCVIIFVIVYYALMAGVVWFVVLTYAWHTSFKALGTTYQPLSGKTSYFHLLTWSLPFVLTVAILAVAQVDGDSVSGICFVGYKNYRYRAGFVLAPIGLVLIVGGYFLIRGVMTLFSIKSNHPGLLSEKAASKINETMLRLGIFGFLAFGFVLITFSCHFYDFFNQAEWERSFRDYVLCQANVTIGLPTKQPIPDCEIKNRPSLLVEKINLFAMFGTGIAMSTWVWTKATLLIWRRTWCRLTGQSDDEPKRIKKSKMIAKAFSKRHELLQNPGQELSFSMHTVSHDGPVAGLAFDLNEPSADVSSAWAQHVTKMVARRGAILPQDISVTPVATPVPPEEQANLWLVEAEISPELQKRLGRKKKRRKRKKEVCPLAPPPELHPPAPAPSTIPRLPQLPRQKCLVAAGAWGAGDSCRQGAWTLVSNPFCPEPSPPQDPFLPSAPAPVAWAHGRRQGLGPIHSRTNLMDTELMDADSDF
Method: (§1) Cells were washed in PBS supplemented with 0.5% fetal bovine serum, fixed in 4% paraformaldehyde in phosphate-buffered saline (PBS) for 10 min, and incubated for 2 h at 37 °C both in the same medium supplemented with Bodipy-Cyclopamine (5 nM) and the studied compounds. The cells were permeabilized with Triton X100 (Sigma) 0.2%. Dako Fluorescent mounting (Dako, Carpinteria, CA, USA) was used as mounting medium and Hoechst reagent for staining of the cell nuclei. Bodipy (green) and Hoechst (blue) signals were analyzed in three to four representative fields per coverslip (× 20 magnification, 1000 cells/field). Data were expressed as percentage of BC incorporation observed with BC alone.[95]

[2] = tested on: Hh target genes in SuFu^−/− MEFs; test: qRT-PCR of endogenous Hh target genes in SuFu−/− MEFs; assay type: cell-based, mouse; conditions: 48 h
Method: Total RNA was isolated with Trizol (Invitrogen/Life Technologies, Carlsbad, CA, USA) and reverse transcribed with SensiFAST cDNA Synthesis Kit (Bioline Reagents Limited, London, UK). Quantitative real-time PCR (Q-PCR) analysis of Gli1, Gli2, Ptch1, Bmp2, Pfkfb3, CycD1, CycD2, Pcna, Oct4, Nanog, β-2 microglobulin, β-actin and HPRT mRNA expression was performed on each cDNA sample using the VIIA7 Real Time PCR System employing Assay-on-Demand Reagents (Life Technologies).

murine Smo D477G = target: T2, murine Smo D477G (Mus musculus, UniProt P56726, D477G); test: Bodipy-Cyclopamine (BC) binding assay, HEK293T cells transfected with mouse Smo D477G
T2 construct: Flag; expressed in transfected cells; host or cells: HEK293T
T2 sequence (P56726 33-793 D477G): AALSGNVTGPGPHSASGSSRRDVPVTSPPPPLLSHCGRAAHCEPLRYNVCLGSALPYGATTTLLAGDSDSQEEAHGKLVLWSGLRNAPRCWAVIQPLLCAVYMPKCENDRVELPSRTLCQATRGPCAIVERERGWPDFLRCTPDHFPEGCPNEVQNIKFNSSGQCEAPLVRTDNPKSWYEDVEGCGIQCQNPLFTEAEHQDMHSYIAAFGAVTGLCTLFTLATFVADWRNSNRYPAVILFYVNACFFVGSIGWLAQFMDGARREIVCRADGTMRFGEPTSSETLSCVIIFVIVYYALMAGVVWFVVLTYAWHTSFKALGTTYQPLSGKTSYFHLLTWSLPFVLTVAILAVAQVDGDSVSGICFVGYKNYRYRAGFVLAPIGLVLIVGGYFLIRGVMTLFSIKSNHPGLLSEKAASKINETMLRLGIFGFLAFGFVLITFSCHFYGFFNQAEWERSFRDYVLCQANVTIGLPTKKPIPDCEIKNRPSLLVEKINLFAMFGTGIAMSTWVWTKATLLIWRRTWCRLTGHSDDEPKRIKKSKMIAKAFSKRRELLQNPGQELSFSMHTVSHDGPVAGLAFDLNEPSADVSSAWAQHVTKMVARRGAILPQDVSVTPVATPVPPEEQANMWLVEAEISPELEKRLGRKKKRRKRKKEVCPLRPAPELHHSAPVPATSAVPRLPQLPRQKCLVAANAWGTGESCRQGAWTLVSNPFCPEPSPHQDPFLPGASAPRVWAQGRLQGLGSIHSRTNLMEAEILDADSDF
Method: as §1
(§2) BC binding (green) is visualized using fluorescence microscopy in a representative field (a). […] Quantitative data are the average BC intensity from five independent fluorescence microscopy images.

[3] = tested on: primary MB cells from Ptch1^+/− mice; test: Trypan blue growth count of primary MB cells from Ptch1+/− mice; assay type: cell-based, mouse; conditions: ex vivo cultures from Ptch1^+/− mice MBs
Method: Cell proliferation was evaluated by BrdU detection (Roche, Welwyn Garden City, UK). Briefly, after the BrdU pulse (24 h for GCPs) cells were fixed with 4% paraformaldehyde and permeabilized with 0.2% Triton X-100, and BrdU detection was performed according to the manufacturer's instructions. Nuclei were counterstained with Hoechst reagent. At least 500 nuclei were counted in triplicate, and the number of BrdU-positive nuclei was recorded. To determine the growth rate of viable cells, a trypan blue count was performed after a treatment period of 24–48–72 h with studied compound.

murine Smo WT = target: T3, murine Smo WT (Mus musculus, UniProt P56726); test: Bodipy-Cyclopamine (BC) binding assay, HEK293T cells transfected with mouse Smo WT
T3 construct: Flag; expressed in transfected cells; host or cells: HEK293T
T3 sequence (P56726 33-793): as the sequence (P56726 33-793 D477G) above, with G445D counted along it
Method: as §1, §2

[4] = BC (5 nM) displacement, transiently transfected 293T cells
[5] = HEK293T cells, various concentrations

COc1ccc(C=CC(=O)c2cc(OC)c(OC)cc2OC)cc1OC [Compound 12, 3-(3,4-dimethoxy-phenyl)-1-(2,4,5-trimethoxy-phenyl)-2-propen-1-one]
BrdU uptake / proliferation rate of GCPs [1]: reduced significantly
IC50 (human Smo WT): 24.5 µM
expression of endogenous Hh target genes in SuFu^−/− MEFs [2]: suppressed the expression of endogenous Hh target genes
IC50 (murine Smo D477G; [4]): 56.7 µM
inhibition of BC binding to mouse Smo D477G mutant (murine Smo D477G; [5]): significantly inhibited BC binding
Fold shift murine Smo (murine Smo D477G; IC50 Smo D477G / IC50 Smo WT): 1.243
proliferation of primary MB cells [3]: significant inhibition of the proliferation
IC50 (murine Smo WT; [4]): 45.6 µM
inhibition of BC binding to murine Smo WT (murine Smo WT; [5]): significantly inhibited BC binding
